Assays:
[1] = db/db mice, 1 mg/day ip
Experimental: Peptide administration: LEP(116–130) and LEP(146–160) peptide amides were dissolved in sterile phosphate buffered saline (PBS, pH 7.2) and administered daily for 7 days between 1500 and 1600 h in a single 1 mg/0.2 ml ip injection. Control mice received 0.2 ml PBS (ip) only.
Feeding and weighing schedule: On day one of the study, and on each day thereafter, 200 g of pelleted rodent diet (Prolab Rat, Mouse, Hamster 3000, St.Louis Mo.; 22% crude protein, 5% crude fat, 5% fiber, 6% ash, 2.5% additional minerals) was added to the hopper on each side of the cages between 0900 and 1100 h. Food remaining after 24 h was weighed to the nearest 0.1 g, and the average amount of food consumed per mouse was calculated (mean±SEM, n=6). The mice were allowed water ad libitum throughout the study, and were weighed once daily between 0900 and 1100 h.
Each value represents the mean±SEM change in body weight or food intake for a group of six mice.

[2] = 28-day ip study of body weight and food intake in female C57BL/6J ob/ob mice; type: in vivo, mouse; conditions: 1 mg per day ip, 28 days
Text: In order to examine this possibility, six overlapping peptide amides, which corresponded to amino acid residues 106 to 167 of mouse leptin, were synthesized and their effects on body weight and food intake in female C57BL/6J ob/ob mice were subsequently assessed.

[3] = target: T1, OB-Ra (Mus musculus, UniProt P48356); test: Inhibition of AP-OB fusion protein binding by COS-7 cells transfected with OB receptor; conditions: 1 nM human AP-OB, peptide up to 300 μM
T1 construct: expressed in transfected cells; host or cells: COS-7
T1 sequence (P48356 22-894 isoform P48356-2 limits assumed): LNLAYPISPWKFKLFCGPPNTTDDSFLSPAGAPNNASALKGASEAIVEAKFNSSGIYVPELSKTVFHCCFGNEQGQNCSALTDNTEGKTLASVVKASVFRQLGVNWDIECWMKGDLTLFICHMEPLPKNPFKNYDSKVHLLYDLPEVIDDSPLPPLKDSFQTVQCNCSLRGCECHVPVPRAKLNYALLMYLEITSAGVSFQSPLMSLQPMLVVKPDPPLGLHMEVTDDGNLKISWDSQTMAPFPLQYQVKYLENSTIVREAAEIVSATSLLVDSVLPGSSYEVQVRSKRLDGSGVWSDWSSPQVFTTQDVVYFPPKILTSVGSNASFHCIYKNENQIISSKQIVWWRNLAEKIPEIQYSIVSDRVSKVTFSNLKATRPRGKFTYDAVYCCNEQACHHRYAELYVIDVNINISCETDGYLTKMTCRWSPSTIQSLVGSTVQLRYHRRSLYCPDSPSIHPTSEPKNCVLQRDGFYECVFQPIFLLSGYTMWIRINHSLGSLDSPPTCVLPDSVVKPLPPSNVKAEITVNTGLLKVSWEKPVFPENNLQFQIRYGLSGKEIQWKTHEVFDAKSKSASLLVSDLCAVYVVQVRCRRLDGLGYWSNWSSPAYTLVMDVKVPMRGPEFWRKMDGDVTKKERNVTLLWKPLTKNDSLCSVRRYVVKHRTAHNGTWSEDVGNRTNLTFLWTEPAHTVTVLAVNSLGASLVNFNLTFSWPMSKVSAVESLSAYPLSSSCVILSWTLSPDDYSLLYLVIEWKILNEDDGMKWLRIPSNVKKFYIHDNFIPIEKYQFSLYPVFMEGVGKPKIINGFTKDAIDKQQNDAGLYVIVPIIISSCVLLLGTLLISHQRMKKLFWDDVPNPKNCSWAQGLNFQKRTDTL
Text: Initial experiments to determine the mechanism of action of LEP(116–130) utilized two highly sensitive in vitro bioassays routinely used to assess leptin binding and receptor activation (see e.g., White, et al., 1997. Proc. Natl. Acad. Sci. U.S.A. 94: 10657–10662). An alkaline phosphatase (“AP”)-leptin (“OB”) fusion protein (“AP-OB”) was used to measure inhibition of leptin binding in the absence or presence of recombinant mouse leptin (positive control) or peptide, by COS-7 cells transfected with the long (signaling) form of the mouse OB receptor (“OB-RL”). Signal transduction assays were done in GT1–7 cells cotransfected with AP reporter and OB-RL constructs. Secreted alkaline phosphatase (“SEAP”) activity in response to stimulation with mouse leptin or peptide was measured by chemiluminescence.
Two days after transfection, COS-7 cells were incubated with 1 nm human AP-OB fusion protein and bound AP activity was determined by chemiluminescence using the Great EscApe alkaline phosphatase detection kit as described by the manufacturer (CLON-TECH).
COS-7 cells were transfected with expression vector for OB-Ra. Two days after transfection, the cells were incubated with 1 nM human AB-OB fusion protein in the absence or presence of 30 nM mouse leptin, 300 μM LEP(116–130) or LEP(146–160). Bound AP activity was determined as has been described. See., e.g., Kamohara et al., 1997 Nature 389: 374–377.

## A L S R L Q G S L Q D I L Q Q (ALSRLQGSLQDILQQ) [LEP(146–160)]
[1]
  Weight after 7 days: 36.2 ± 1.4 g
[1]; 7 days
  Cumulative food intake: 53.5 ± 0.3 gm/mouse
  Effect on body weight gain and food intake: had no effect on either body weight
  Percent increase (body weight): +18.3%
  Weight increase: +5.6 g
[2]
  Weight gain and food intake vs vehicle: continued to consume food and gain weight at a rate comparable to vehicle-injected control mice
[3]
  Inhibition of AP-OB fusion protein binding: neither LEP(116–130) nor LEP(146–160), at 300 μM, were able to inhibit AP-OB binding
[3]; listed as LEP(145–160)
  Inhibition of AP-OB fusion protein binding: unable to inhibit AP-OB binding

Reference: US7208572B2, “Leptin-related peptides” (Albany Medical College, priority 1998, dated 2007)
